From ChEMBL document CHEMBL4396870, “Pharmacological Chaperones for the Treatment of α-Mannosidosis” (J Med Chem, 2019)
Substitutions are numbered along the chain they refer to.

Experiments:
[1] = test system: T1, Lysosomal alpha-mannosidase (Homo sapiens), O00754 [H72L]; assay: Chaperone activity at human Lysosomal alpha-mannosidase H72L mutant transfected in human […] knockout HAP1 cells assessed as enzyme activity enhancement at 20 uM incubated for 96 hrs relative to control
T1 sequence (whole entry): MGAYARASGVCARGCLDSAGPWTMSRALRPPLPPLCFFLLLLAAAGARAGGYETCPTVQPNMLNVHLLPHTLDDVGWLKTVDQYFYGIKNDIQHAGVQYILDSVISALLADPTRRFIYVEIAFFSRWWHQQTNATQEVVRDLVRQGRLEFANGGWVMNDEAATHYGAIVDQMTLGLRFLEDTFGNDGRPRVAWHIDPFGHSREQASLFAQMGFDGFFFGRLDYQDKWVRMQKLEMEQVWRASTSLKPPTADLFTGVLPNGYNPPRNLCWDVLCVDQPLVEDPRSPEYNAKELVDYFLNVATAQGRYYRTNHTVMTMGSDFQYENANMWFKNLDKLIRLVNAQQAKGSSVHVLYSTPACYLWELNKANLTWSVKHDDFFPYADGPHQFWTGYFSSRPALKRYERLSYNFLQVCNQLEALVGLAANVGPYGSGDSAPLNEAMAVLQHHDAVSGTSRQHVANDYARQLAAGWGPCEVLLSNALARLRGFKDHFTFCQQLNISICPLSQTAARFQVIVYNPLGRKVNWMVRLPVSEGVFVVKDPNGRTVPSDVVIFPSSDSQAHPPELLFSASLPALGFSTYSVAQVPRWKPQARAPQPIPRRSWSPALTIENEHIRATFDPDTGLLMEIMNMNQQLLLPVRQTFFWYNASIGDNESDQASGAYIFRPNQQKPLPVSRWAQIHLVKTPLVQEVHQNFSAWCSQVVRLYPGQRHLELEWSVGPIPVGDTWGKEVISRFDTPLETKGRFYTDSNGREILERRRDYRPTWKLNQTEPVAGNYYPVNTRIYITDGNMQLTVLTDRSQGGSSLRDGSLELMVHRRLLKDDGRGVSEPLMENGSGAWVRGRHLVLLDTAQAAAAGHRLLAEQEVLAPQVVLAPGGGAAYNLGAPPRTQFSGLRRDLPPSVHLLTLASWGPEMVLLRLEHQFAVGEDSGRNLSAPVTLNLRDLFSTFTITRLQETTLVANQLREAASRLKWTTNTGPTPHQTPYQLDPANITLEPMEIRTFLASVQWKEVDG

[2] = test system: T2, Lysosomal alpha-mannosidase (Homo sapiens), O00754 [R916C]; assay: Chaperone activity at human Lysosomal alpha-mannosidase R916C mutant transfected in human […] knockout HAP1 cells assessed as enzyme activity enhancement at 2 uM incubated for 96 hrs relative to control
T2 sequence (whole entry): T1 sequence (whole entry) with L72H, R916C

Row | SMILES | Activity [1] [%] | Activity [2] [%]
1 | COC[C@H]1O[C@@H]2O[C@H]3[C@H](OC)[C@@H](OC)[C@@H](O[C@H]4[C@H](OC)[C@@H](OC)[C@@H](O[C@H]5[C@H](OC)[C@@H](OC)[C@@H](O[C@H]6[C@H](OC)[C@@H](OC)[C@@H](O[C@H]7[C@H](OC)[C@@H](OC)[C@@H](O[C@H]8[C@H](OC)[C@@H](OC)[C@@H](O[C@H]1[C@H](OC)[C@H]2OC)O[C@@H]8COC)O[C@@H]7COC)O[C@@H]6COC)O[C@@H]5COCc1cn(CCCCCCN[C@@H]2[C@@H](O)[C@@H](O)[C@H](O)[C@H]5COC(=O)N52)nn1)O[C@@H]4COC)O[C@@H]3COC | 16 | 33
2 | CC(C)(C)OC(=O)NCCCCCCCCCN[C@@H]1[C@@H](O)[C@@H](O)[C@H](O)[C@H]2COC(=O)N21 | 68 | 26
